Results on one compound are retold here after patent EP4772186A1, “USE AND COMPOSITION OF POSTBIOTIC OF LACTOBACILLUS PARACASEI ET-22” (Inner Mongolia Yili Industrial Group Co., Ltd., priority 2023, dated 2025).

For one experiment, the system named is VSC concentration. In words: in vitro Halimeter determination of VSC concentration in saliva fermentation. As to conditions: compared with CK group, anaerobic cultivation 10 hours. It is filed as cell-based, halitosis subjects (saliva). As for the experimental part:
Fresh saliva was collected from 10 halitosis subjects (Halimeter index >120). Subjects were required not to consume any food or drink for 2 hours before donating saliva. Saliva was directly spat into a saliva collection tube, 5 ml per person, and mixed. The mixture was centrifuged at 4500 rpm for 10 minutes, and the supernatant was collected, aliquoted, and stored at -80°C for subsequent experimental studies.
(§1) Lysate observation group: In a 10 ml sample vial, 100 µl of saliva was added first, followed by the separate addition of ET-22 viable bacteria (1.0×10^9 CFU/ml), ET-22 heat-inactivated bacterial cells (obtained by inactivating viable bacteria at 1.0×10^9 CFU/ml), and lysate (obtained by inactivating and then filtering viable bacteria at 1.0×10^9 CFU/ml), each at 100µl. Then, 1.8 ml of SHI medium was added. After filling with nitrogen, anaerobic cultivation was performed for 10 hours. Then, the obtained culture was placed in a 60°C water bath for 30-min incubation. VSC concentration was measured using the in vitro Halimeter method.
(§2) Group of two nucleotides: In a 10 ml sample vial, 100 µl of saliva was added first, followed by the separate addition of ET-22 viable bacteria (1.0×10^9 CFU/ml), ET-22 heat-inactivated bacterial cells (obtained by inactivating viable bacteria at 1.0×10^9 CFU/ml), NAD, and FAD (500 µg/ml, 100 µg/ml, 10 µg/ml), each at 100µl. Then, 1.8 ml of SHI medium was added. After filling with nitrogen, anaerobic cultivation was performed for 10 hours. Then, the obtained culture was placed in a 60°C water bath for 30-min incubation. VSC concentration was measured using the in vitro Halimeter method.
as §2, with “five organic acids:” for “two nucleotides:”, “heat-inactivating” for “inactivating”, “CFU/ml),” for “CFU/ml), NAD,”, “five organic acid components” for “FAD”
as §2, with “Observation group” for “Group”, “four polypeptides:” for “two nucleotides:”, “heat-inactivating” for “inactivating”, “CFU/ml),” for “CFU/ml), NAD,”, “components of four polypeptides” for “FAD”
as §1, with “Peptidoglycan” for “Lysate observation”, “peptidoglycan (peptidoglycan extracted from” for “lysate (obtained by inactivating and then filtering”, “CFU/ml).” for “CFU/ml), each at 100µl.”, “method. […]” for “method.”

The test system of a further experiment is biofilm. The experiment is described as follows: scanning electron microscopy (SEM) of biofilm on HA disc. It is filed as cell-based, halitosis subjects (saliva). As to conditions: pure components 100 µg/ml, others from 1.0×10^9 CFU/ml, 37°C 10 hours. As for the experimental part:
Lysate group: A hydroxyapatite (HA) disc was placed in a 96-well plate. 10 µl of saliva was added to the 96-well plate, followed by separate addition of ET-22 viable bacteria (1.0×10^9 CFU/ml), ET-22 heat-inactivated bacterial cells (obtained by inactivating viable bacteria at 1.0×10^9 CFU/ml), and lysate (obtained by inactivating and filtering viable bacteria at 1.0×10^9 CFU/ml), each at 10 µl. Then, 80 µl of SHI medium was added. The 96-well plate was placed in an anaerobic box and cultured anaerobically at 37°C for 10 hours.
NAD group: A hydroxyapatite (HA) disc was placed in a 96-well plate. 10 µl of saliva was added to the 96-well plate, followed by separate addition of ET-22 viable bacteria (1.0×10^9 CFU/ml), ET-22 heat-inactivated bacterial cells (obtained by heat-inactivating viable bacteria at 1.0×10^9 CFU/ml), and NAD (100 µg/ml), each at 10 µl. Then, 80 µl of SHI medium was added. The 96-well plate was placed in an anaerobic box and cultured anaerobically at 37°C for 10 hours.
2-hydroxy-3-phenylpropionic acid group: A hydroxyapatite (HA) disc was placed in a 96-well plate. 10 µl of saliva was added to the 96-well plate, followed by separate addition of ET-22 viable bacteria (1.0×10^9 CFU/ml), ET-22 heat-inactivated bacterial cells (obtained by heat-inactivating viable bacteria at 1.0×10^9 CFU/ml), and 2-hydroxy-3-phenylpropionic acid (100 µg/ml), each at 10 µl. […]

Regarding `O=C(O)C(O)Cc1ccccc1` (stereo not drawn) [2-hydroxy-3-phenylpropionic acid], the VSC concentration result with VSC concentration (high concentration (500 µg/ml)) and in the experiment with VSC concentration (medium concentration (100 µg/ml)) was “significantly lower than that in the control group” each time. Also, the “biofilm structure (SEM observation)” value with biofilm was “the number of bacterial cell layers decreases, and the biofilm becomes thinner”.
